Tested on: human TAP
Experiment: NADH-coupled steady-state ATP hydrolysis (ATPase) assay of purified TAP
Format: biochemical
Settings: 28 °C; for Stimulation of ATP hydrolysis by shortened b27 peptides: TAP 0.5 µM, peptides 20 µM, ATP 3 mM, means of three technical replicates of three biological replicates (n = 9), one-way ANOVA, Fig. 4A
Method: Steady-state ATP hydrolysis activity was measured using a nicotinamide adenine dinucleotide (NADH)-coupled assay. Purified TAP was diluted to a final concentration of 0.5 µM in freshly prepared reaction buffer containing 50 mM HEPES (pH 8.0 with KOH), 150 mM KCl, 2 mM MgCl2, 2 mM DTT, 0.004% (w/v) digitonin, 60 µg mL^−1 pyruvate kinase (Roche), 32 µg mL^−1 lactate dehydrogenase (Roche), 9 mM phosphoenolpyruvate and 150 µM NADH. Peptide substrates were added to a final concentration of 20 µM unless specified otherwise. Then, 30 µL aliquots were dispensed into Corning 384-well Black/Clear Flat Bottom Polystyrene NBS Microplates, and reactions were initiated by the addition of 3 mM ATP. NADH consumption was measured by monitoring the rate of NADH fluorescence depletion at λex = 340 nm and λem = 445 nm at 28 °C using an Infinite M1000 microplate reader (Tecan). Data were converted to ATP turnover with an NADH standard curve. Technical replicates were measured in parallel from the same protein preparation on the same day and biological replicates were measured from different protein preparations from different cells on different days.

| Substance | Stimulation of ATP hydrolysis by shortened b27 peptides | Stimulation of ATP hydrolysis by shortened b27 peptides (listed as B27′) | ATPase activity as a function of b27 concentration (0.5 µM TAP, 3 mM ATP, pH 8.0, three technical replicates (n = 3), Fig. 1B) |
| --- | --- | --- | --- |
| RRYQSTEL [b27′, 8-mer modified b27 peptide lacking the central lysine at position five] | stimulated ATP hydrolysis | increased the ATPase activity of TAP to a slightly greater extend compared to b27 | – |
| RRYSTEL [b27″, 7-mer modified b27 peptide lacking the lysine and the adjacent glutamine] | neither of the 7-mer peptides were able to stimulate ATP hydrolysis and not | – | – |
| b27: 9-mer peptide RRYQKSTEL, well-characterized substrate transported by TAP and presented by HLA-B27 [reference compound] | – | – | stimulated in a dose-dependent manner |
| b27″(Q): 7-mer modified b27 peptide lacking the lysine and the adjacent serine (RRYQTEL) | neither of the 7-mer peptides were able to stimulate ATP hydrolysis and not | – | – |
